Data from patent publication US20220095617A1, “PLANT GROWTH REGULATING AGENT” (IDEMITSU KOSAN CO.,LTD., priority 2019, published 2022).

Tests used:
Format in all cases: in vivo
lettuce (Green Wave) [1] = test: Example 1: High-temperature stress Petri dish test (lettuce), comparison with other natural products; conditions: 0.1 ppm in agar medium
lettuce (Green Wave) [2] = test: Example 3: High-temperature stress Petri dish test (lettuce), blending with β-carotene; conditions: 0.1 ppm
Rice (Koshihikari) seeds = test: Example 5: High-temperature stress Petri dish test (rice seeds); conditions: for Germination rate, Increase rate: non-addition group = 100.0; for Germination rate, Average: seeds 65° C. hot water 10 minutes, 28° C. 5 days
Procedure: (§1) Rice (Koshihikari) seeds were soaked in hot water at 65° C. for 10 minutes to perform high-temperature treatment. […] A group similarly soaked in distilled water was provided as a non-addition group. After the soaking treatment, the seeds were dried in air, and then 20 seeds were sown on each of shallow Petri dishes in which qualitative filter paper was placed. To the filter paper in each Petri dish, 5 mL of distilled water was uniformly added dropwise. […] For each group, three measurement results were obtained (N=3).

[3] = system: Carrot (US Harumakigosun carrot) seeds; test: Example 7: High-temperature stress Petri dish test (carrot seeds); conditions: for Germination rate, Increase rate: non-addition group = 100.0; for Germination rate, Average: seeds 55° C. hot water 20 minutes, 23° C. 7 days
Procedure: as §1, with “Carrot (US Harumakigosun carrot, The Yokohama Nursery Co., Ltd.)” for “Rice (Koshihikari)”, “55°” for “65°”, “20” for “10”, “3” for “5”

Bent grass (Penncross) = test: Example 8: High-temperature stress pot test (bent grass); conditions: for Weight of above-ground part, Increase rate: non-addition group = 100.0; for Weight of above-ground part, Average: greenhouse average daytime 50° C., 7 days, fresh weight
Procedure: Bent grass (Penncross, Snow Brand Seed Co., Ltd.) was uniformly sown on pots filled with seedling culture soil (manufactured by Katakura & Co-op Agri Corporation; Kumiai seedling culture soil for gardening Genkikun No. 1) (soil volume, 100 ml), and cultivated for 14 to 20 days, followed by evenly cutting the above-ground part to a length of about 1 cm on the day before application of hesperidin. […] A non-addition group was similarly subjected to drenching treatment using distilled water. High-temperature treatment was carried out by cultivation in a glass greenhouse (average daytime temperature, […]) for 7 days, and then the fresh weight of the above-ground part was evaluated. For each group, three measurement results were obtained (N=3).

Cabbage (Okina) = test: Example 10: High-temperature stress pot test (cabbage); conditions: for Fresh weight of above-ground part, Increase rate / Fresh weight of underground part, Increase rate: non-addition group = 100.0; for Fresh weight of above-ground part, Average / Fresh weight of underground part, Average: greenhouse 35° C., 30 days
Procedure: Cabbage (Okina, Takii & Co., Ltd.) was sown on a cell tray filled with seedling culture soil (manufactured by Nihon Hiryo Co., Ltd.; “Naebijin N100”). […] Cultivation was carried out in a greenhouse (average daytime temperature, 35° C.) for 30 days, and then the fresh weight of the above-ground part and the fresh weight of the underground part were evaluated. For each group, 15 to 20 measurement results were obtained (N=15 to 20).

[4] = system: Zoysia tenuifolia (Korean velvet grass); test: Example 12: Low-temperature stress field test (lawn grass); conditions: for Number of sprouts, Average: three months after final spraying, low temperature; for Number of sprouts, Increase rate: non-addition group = 100.0
Procedure: In the research institute, a wettable powder formulation containing 1% hesperidin having the formulation composition shown in Table 11 was applied a total of four times by foliar spraying at a ratio of 0.15 to 0.75 g/m^2 (amount of water sprayed, 250 ml) every other week from late October to late December in 2017. Three months after the final spraying, the lawn grass was collected using a hole cutter, and the number of sprouts was measured. For each group, three measurement results were obtained (N=3).
In the period from November 2017 to March 2018, the highest temperature was 16.6° C.; the lowest temperature was −3.7° C.; and the average temperature was 6.0° C. Since the optimum growth temperature of Zoysia tenuifolia (Korean velvet grass) is 24 to 35° C., and it enters a period of dormancy at 10° C. or less, the plant was judged to have been affected by the low-temperature stress.

[5] = system: Cucumber (Hanjirofushinari); test: Example 13: Salt stress pot test (cucumber); conditions: foliar spraying 1 ppm (dilution of wettable powder formulation)
Procedure: Cucumber (Hanjirofushinari, Takii & Co., Ltd.) was sown on pots filled with seedling culture soil (manufactured by Katakura & Co-op Agri Corporation; Kumiai seedling culture soil for gardening Genkikun No. 1) (soil volume, 100 ml), and cultivated for 21 days. With a wettable powder formulation containing 1% hesperidin having the formulation composition shown in Table 11, a dilution was prepared such that the final concentration of hesperidin was 1 ppm. For each pot, 10 ml of the dilution was applied by foliar spraying. The cucumber was left to stand in a dilution whose final NaCl concentration was adjusted to 75 mM, and allowed to absorb water from the bottom. Cultivation was carried out in a greenhouse (20 to 25° C.) for 7 days, and then the fresh weight of the above-ground part was measured. For each group, six measurement results were obtained (N=6).

Wheat (Satonosora) = test: Example 15: Growth-promoting effect (wheat); conditions: for Increase/decrease of above-ground part / Increase/decrease of underground part: non-addition group = 100%; for Weight of above-ground part FW / Weight of underground part FW: 25° C., 14 days
Procedure: Wheat (Satonosora) was sown on pots filled with seedling culture soil (manufactured by Katakura & Co-op Agri Corporation; Kumiai seedling culture soil for gardening Genkikun No. 1) (soil volume, 100 ml). After […] of the germination, drenching treatment was carried out with 5 ml each of dilutions of hesperidin prepared at final concentrations of 10 to 33 ppm (using water as the solvent). […]

tomato (Momotaro Home) = test: Example 24: Dry stress Petri dish test (tomato); conditions: Dry stress (20 g/L polyethylene glycol); for Root length, Average: 28° C., 12 days; for Root length, Increase rate: non-addition group = 100.0
From the text: For each group, three measurement results were obtained (N=3).

COc1ccc([C@@H]2CC(=O)c3c(O)cc(O[C@@H]4O[C@H](CO[C@@H]5O[C@@H](C)[C@H](O)[C@@H](O)[C@H]5O)[C@@H](O)[C@H](O)[C@H]4O)cc3O2)cc1O [Hesperidin]
Root length (lettuce (Green Wave) [1]; High-temperature treatment (42° C., 1.5 hours), then 23° C. 2 days): 24.0 mm | Root length (lettuce (Green Wave) [1]; Normal cultivation): 25.1 mm | Root length (lettuce (Green Wave) [2]; High-temperature treatment (42° C., 1.5 hours)): 15.0 mm | Root length (lettuce (Green Wave) [2]; Normal cultivation): 22.2 mm | Germination rate, Increase rate (Rice (Koshihikari) seeds; 1 ppm): 131.5% | Germination rate, Increase rate (Rice (Koshihikari) seeds; 10 ppm): 146.6% | Germination rate, Increase rate (Rice (Koshihikari) seeds; 100 ppm): 134.0% | Germination rate, Average (Rice (Koshihikari) seeds; then soaked 1 hour at 1 ppm): 77.3% | Germination rate, Average (Rice (Koshihikari) seeds; then soaked 1 hour at 10 ppm): 86.2% | Germination rate, Average (Rice (Koshihikari) seeds; then soaked 1 hour at 100 ppm): 78.8% | Germination rate, Increase rate ([3]; 100 ppm): 215.8% | Germination rate, Increase rate ([3]; 1000 ppm): 173.7% | Germination rate, Average ([3]; then soaked at 100 ppm): 68.3% | Germination rate, Average ([3]; then soaked at 1000 ppm): 55.0% | Weight of above-ground part, Increase rate (Bent grass (Penncross); 0.06 ppm): 151.7% | Weight of above-ground part, Increase rate (Bent grass (Penncross); 0.6 ppm): 162.2% | Weight of above-ground part, Average (Bent grass (Penncross); drenching 0.06 ppm): 3.3 g | Weight of above-ground part, Average (Bent grass (Penncross); drenching 0.6 ppm): 3.6 g | Death of the above-ground part (FIG. 1) (Bent grass (Penncross); groups subjected to drenching treatment (0.06 to 0.6 ppm), after high-temperature treatment): no death was found | Fresh weight of above-ground part, Increase rate (Cabbage (Okina); 100 ppm): 118.0% | Fresh weight of underground part, Increase rate (Cabbage (Okina); 100 ppm): 130.6% | Fresh weight of above-ground part, Increase rate (Cabbage (Okina); 1000 ppm): 97.1% | Fresh weight of underground part, Increase rate (Cabbage (Okina); 1000 ppm): 103.2% | Fresh weight of above-ground part, Average (Cabbage (Okina); drenching 100 ppm): 0.87 g | Fresh weight of underground part, Average (Cabbage (Okina); drenching 100 ppm): 0.32 g | Fresh weight of above-ground part, Average (Cabbage (Okina); drenching 1000 ppm): 0.72 g | Fresh weight of underground part, Average (Cabbage (Okina); drenching 1000 ppm): 0.25 g | Number of sprouts, Average ([4]; 0.15 g/m^2, foliar spraying four times as wettable powder formulation containing 1% hesperidin): 111.33 number | Number of sprouts, Increase rate ([4]; 0.15 g/m^2): 189.8% | Number of sprouts, Average ([4]; 0.75 g/m^2, foliar spraying four times as wettable powder formulation containing 1% hesperidin): 112.00 number | Number of sprouts, Increase rate ([4]; 0.75 g/m^2): 190.9% | Fresh weight of above-ground part ([5]; Normal cultivation): 4.2 g | Fresh weight of above-ground part ([5]; Salt treatment (75 mM NaCl, 7 days)): 3.6 g | Increase/decrease of above-ground part (Wheat (Satonosora); 10 ppm): 123% | Increase/decrease of underground part (Wheat (Satonosora); 10 ppm): 107% | Increase/decrease of above-ground part (Wheat (Satonosora); 33 ppm): 116% | Increase/decrease of underground part (Wheat (Satonosora); 33 ppm): 104% | Weight of above-ground part FW (Wheat (Satonosora); drenching 10 ppm): 364.9 mg/individual | Weight of underground part FW (Wheat (Satonosora); drenching 10 ppm): 391.6 mg/individual | Weight of above-ground part FW (Wheat (Satonosora); drenching 33 ppm): 345.4 mg/individual | Weight of underground part FW (Wheat (Satonosora); drenching 33 ppm): 382.6 mg/individual | Root length, Average (tomato (Momotaro Home); 0.1 ppm): 49.89 mm | Root length, Increase rate (tomato (Momotaro Home); 0.1 ppm): 214.2% | Root length, Average (tomato (Momotaro Home); 1 ppm): 55.81 mm | Root length, Increase rate (tomato (Momotaro Home); 1 ppm): 239.6%
